Data taken from patent US8263615B2, “Bis-heterocyclic imidazolyl compounds” (Novartis AG, priority 2005, dated 2012).

Experiments:
plasma corticosterone = test: in vivo suppression of plasma corticosterone levels in ACTH-stimulated rats; parameters: species or system Wistar rats; conditions: rat plasma, 4 mg/kg p.o., 2 h after dosing vs 1 h before dosing
Description: (§1) The aldosterone- and corticosterone-suppressing activity of herein described compounds may be assessed with the following in vivo protocol.
(§2) Adult male Wistar rats weighing between 250 and 350 grams are kept under the usual 12 hour light and 12 hour dark conditions at a temperature of 23° C.±2° C. On the first day of the experiment, the animals receive a subcutaneous injection of a depot ACTH product in a dose of 1.0 mg/kg weight (SYNACTEN-Depot, Novartis, Basel, CH) 16 hours prior to the administration of a test compound. […] An alternative method to stimulate aldosterone secretion consists in subjecting rats to a low salt diet for 48 hours and applying the diuretic furosemide at 10 mg/kg by subcutaneous or intraperitoneal administration 16 hours, respectively 2 hours prior to the start of the experiment. On the second day of the experiment, the animals are divided into test groups of 5 animals and subjected to a first bleed 1 hour prior to the administration of test compound. Subsequently, and 16 hours after the injection of the ACTH product, the animals receive either vehicle or test compound dissolved in vehicle in a variable dose range from 0.02 to 20 mg/kg by oral gavage. The animals are bled two more times from the vena subclavia under isoflurane anesthesia 2 and 6 hours after dosing. The blood is collected in heparin-treated tubes. The plasma samples are obtained by centrifugation and stored at −20° C. An alternative method to bleed animals time-dependently consists in using animals that are chronically carotid catheterized which allows the periodical sampling of up to 0.2 ml of blood using an AccuSampler (DiLab Europe, Lund, Sweden). The blood sampling with the AccuSampler may occur 1 hour prior to the administration of a test compound and 2, 4, 6, 8, 12, 16 and 24 hours thereafter. The blood samples are anti-coagulated with heparin and centrifuged. The aldosterone and corticosterone concentrations of the plasma samples can be determined with a radioimmunoassay as described above for the in vitro test systems.
(§3) The selective suppression of plasma steroid levels as for instance aldosterone in comparison to corticosterone may serve as a measure for in vivo bioavailability and pharmacodynamic enzyme inhibitory activity of the herein described compounds. The evaluation of the data may occur relative to the application of vehicle or quantitatively by determination of the area under the curve (AUC).

plasma aldosterone = test: in vivo suppression of plasma aldosterone levels in ACTH-stimulated rats; parameters: species or system Wistar rats; conditions: rat plasma, 4 mg/kg p.o., 2 h after dosing vs 1 h before dosing
Description: as §1, §2, §3

Row | SMILES | Corticosterone levels (% change at 2 h) (plasma corticosterone) [%] | Aldosterone levels (% change at 2 h) (plasma aldosterone) [%]
1 | CC(=O)c1ccc(C2CCn3cncc32)cc1 (stereo not shown) [Example 3, 1-[4-(6,7-Dihydro-5H-pyrrolo[1,2-c]imidazol-7-yl)phenyl]ethanone] | −13 | −53
2 | O=[N+]([O-])c1ccccc1C1CCCn2cncc21 (stereo not shown) [Example 13, 8-(2-Nitrophenyl)-5,6,7,8-tetrahydroimidazo[1,5-a]pyridine] | 0 | −62
3 | CC1(C)CCn2cncc2C1c1ccc(C#N)cc1 (stereo not shown) [Example 16, 4-(7,7-Dimethyl-5,6,7,8-tetrahydroimidazo[1,5-a]pyridin-8-yl)benzonitrile] | −3 | −21
4 | CSc1ccc(C2CCCn3cncc32)cc1 (stereo not shown) [Example 12, 8-(4-Methylsulphanylphenyl)-5,6,7,8-tetrahydroimidazo[1,5-a]pyridine] | 2 | −61
5 | Fc1ccc(C2CCn3cncc32)cc1F (stereo not shown) [Example 2, 7-(3,4-Difluorophenyl)-6,7-dihydro-5H-pyrrolo[1,2-c]imidazole] | −32 | −49
